The results in this text go back to patent US9828385B2, “Spiro-oxazolones” (Hoffmann-La Roche Inc., priority 2014, dated 2017).

T1 sequence (P37288 whole entry): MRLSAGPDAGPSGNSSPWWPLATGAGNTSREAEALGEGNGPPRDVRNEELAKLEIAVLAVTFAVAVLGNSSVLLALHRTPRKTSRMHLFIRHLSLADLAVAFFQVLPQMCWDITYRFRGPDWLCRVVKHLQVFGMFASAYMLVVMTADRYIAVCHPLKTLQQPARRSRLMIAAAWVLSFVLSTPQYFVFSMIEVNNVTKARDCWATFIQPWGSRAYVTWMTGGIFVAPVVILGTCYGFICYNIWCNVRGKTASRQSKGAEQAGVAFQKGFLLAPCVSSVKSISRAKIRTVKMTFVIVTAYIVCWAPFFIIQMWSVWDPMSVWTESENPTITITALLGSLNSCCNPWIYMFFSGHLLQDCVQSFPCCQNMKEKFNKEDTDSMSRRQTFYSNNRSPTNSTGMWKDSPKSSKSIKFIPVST

The assay concerns the target T1, human V1a receptor (Homo sapiens, UniProt P37288).
T1 construct: expressed in transfected cells; host or cells: HEK293 cells, transiently transfected; cell membranes
Put plainly: human V1a receptor binding studies (3H-Vasopressin, SPA beads). Conditions: membranes of HEK293 cells transiently transfected with human V1a receptor, Ki by Cheng-Prussoff from IC50, read-out: pKi hV1a (converted). The procedure, abridged: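 Membranes from transiently transfected HEK293 cells expressing cloned human V1a receptor, on yttrium silicate SPA beads, competed against 4 nM 3H-vasopressin (added stock concentration) in Tris buffer with NaCl, KCl, CaCl2, MgCl2 for 1 h at room temperature. Nonspecific binding with cold vasopressin; IC50 by nonlinear fit, Ki via Cheng-Prusoff.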
Consider `CCOCC1(C)OC(N2CCC3(CC2)OCc2ccccc23)=NC1=O` (single isomer, unassigned; (+)) [Example 96, (+)-5-(Ethoxymethyl)-5-methyl-2-(1′H,3H-spiro[2-benzofuran-1,4′-piperidin]-1′-yl)-1,3-oxazol-4(5H)-one], for which the Ki is 251 nM.

As to `CC1(Cc2ccc(Cl)nc2)OC(N2CCC3(CC2)OCc2ccccc23)=NC1=O` (stereo not shown) [Example 82, 5-[(6-Chloropyridin-3-yl)methyl]-5-methyl-2-(1′H,3H-spiro[2-benzofuran-1,4′-piperidin]-1′-yl)-1,3-oxazol-4(5H)-one], the Ki is 50.1 nM. Under `O=C1N=C(N2CCC3(CC2)OCc2ccccc23)OC1C(O)c1ccc(Cl)cc1` (single isomer, unassigned; diastereomer b) [Example 45, (+)-5-[(4-Chlorophenyl)(hydroxy)methyl]-2-(1′H,3H-spiro[2-benzofuran-1,4′-piperidin]-1′-yl)-1,3-oxazol-4(5H)-one diastereomer b] stands 15.8 nM. Under `O=C1N=C(N2CCC3(CC2)OCc2ccccc23)OC12CCN(Cc1ccccc1)CC2` [Example 135, 8-Benzyl-2-(1′H,3H-spiro[2-benzofuran-1,4′-piperidin]-1′-yl)-1-oxa-3,8-diazaspiro[4.5]dec-2-en-4-one] stands 398 nM. Consider `O=C1N=C(N2CCC3(CC2)OCc2ccccc23)OC12C[C@@H]1OCCO[C@@H]1C2` (single isomer, unassigned; diastereomer b) [Example 145, 2′-(1′H,3H-Spiro[2-benzofuran-1,4′-piperidin]-1′-yl)-2,3,4a,5,7,7a-hexahydro-4′H-spiro[cyclopenta[b][1,4]dioxine-6,5′-[1,3]oxazol]-4′-one diastereomer b], for which the Ki is 50.1 nM. As for `CC(C)(C)[Si](C)(C)OCC1=CCC2(C1)OC(N1CCC3(CC1)OCc1ccccc13)=NC2=O` (stereo not shown) [Example 118, 7-({[tert-Butyl(dimethyl)silyl]oxy}methyl)-2-(1′H,3H-spiro[2-benzofuran-1,4′-piperidin]-1′-yl)-1-oxa-3-azaspiro[4.4]nona-2,7-dien-4-one], the figure is 316 nM; as for `CC#CCC1OC(N2CCC3(CC2)OCc2ccccc23)=NC1=O` (stereo not shown) [Example 11, 5-(But-2-yn-1-yl)-2-(1′H,3H-spiro[2-benzofuran-1,4′-piperidin]-1′-yl)-1,3-oxazol-4(5H)-one], 50.1 nM. As for `O=C1OC2(CCN(C3=NC(=O)C(C(O)c4ccc(Cl)cc4)O3)CC2)c2ccccc21` (single isomer, unassigned) [Example 51, 1′-{-5-[(4-Chlorophenyl)(hydroxy)methyl]-4-oxo-4,5-dihydro-1,3-oxazol-2-yl}-3H-spiro[2-benzofuran-1,4′-piperidin]-3-one diastereomer a, enantiomer B], the figure is 158 nM; as for `CCCCC1(C)OC(N2CCC3(CC2)OC(=O)c2ccccc23)=NC1=O` (stereo not shown) [Example 69, 1′-(5-Butyl-5-methyl-4-oxo-4,5-dihydro-1,3-oxazol-2-yl)-3H-spiro[2-benzofuran-1,4′-piperidin]-3-one], 316 nM; as for `CC1(Cc2ccccc2)OC(N2CCC3(CC2)OC(=O)c2ccccc23)=NC1=O` (single isomer, unassigned; enantiomer b) [Example 73, 1′-[5-Benzyl-5-methyl-4-oxo-4,5-dihydro-1,3-oxazol-2-yl]-3H-spiro[2-benzofuran-1,4′-piperidin]-3-one enantiomer B], 251 nM.
